Legend:
human P2Y13 (GPR86) = target: T1, human P2Y13 (GPR86) (Homo sapiens, UniProt Q9BPV8, T179M); assay: Antagonism of ADP-induced IP3 accumulation in human P2Y13-AG32 cells; type: cell-based; conditions: 10 min pre-incubation, then ADP 100 nM for 30 s; means±S.D. of three independent experiments
T1 construct: expressed in transfected cells; host or cells: 1321N1 astrocytoma clone AG32 (stably expressing Gα16 from pERAEQ2), G418-selected
T1 sequence (Q9BPV8 22-354 T179M): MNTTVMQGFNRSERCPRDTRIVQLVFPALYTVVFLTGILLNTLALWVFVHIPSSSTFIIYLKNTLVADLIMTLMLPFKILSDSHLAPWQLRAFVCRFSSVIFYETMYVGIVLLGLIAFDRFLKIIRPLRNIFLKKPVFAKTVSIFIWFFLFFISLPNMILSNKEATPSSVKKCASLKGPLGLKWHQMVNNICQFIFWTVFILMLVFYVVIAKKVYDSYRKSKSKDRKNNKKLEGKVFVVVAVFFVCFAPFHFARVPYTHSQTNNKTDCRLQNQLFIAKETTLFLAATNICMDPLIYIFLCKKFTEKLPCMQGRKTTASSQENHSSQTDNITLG
Method: Antagonist were tested on AG32 cells transfected with human GPR86. AG32 cells were seeded (200,000 cells per dish) on 35 mm (diameter) Petri dishes and labeled for 24 h with 5 μCi/ml [^3H]-myoinositol in inositol free DMEM containing 5% fetal calf serum, antibiotics, amphotericin, sodium pyruvate, and 400 μg/ml of G418. […] Prior to the stimulation, cells were pre-incubated for 10 min in presence of Reactive Blue 2 (RB-2), Suramine, PPADS or MRS-2179. The cells were then incubated in presence of ADP 100 nM for 30 s. The incubation was stopped by the addition of 1 ml of an ice-cold 3% perchloric acid solution. […] The data represent the mean±S.D. of triplicate experimental points obtained in one representative experiment of three.

[1] = system: 1321N1 cells expressing GPR86 receptor alone; conditions: nucleotides 100 μM for 30 s
Method: Cells of the invention, for example, 1321N1 cells, are labelled for 24 hours with 10 μCi/ml [^3H] inositol in inositol free DMEM containing 5% FCS, antibiotics, amphotericin, sodium pyruvate and 400 μg/ml G418. Cells are incubated for 2 h in Krebs-Ringer Hepes (KRH) buffer of the following composition (124 mM NaCl, 5 mM KCl, 1.25 mM MgSO4, 1.45 mM CaCl2, 1.25 mM KH2PO4, 25 mM Hepes (pH: 7.4) and 8 mM glucose). The cells are then challenged with various nucleotides for 30 s. The incubation is stopped by the addition of an ice cold 3% perchloric acid solution. IP are extracted and separated on Dowex columns as previously described (25). 2MeSATP and ATP solutions (1 mM) are treated at room temperature with 20 units/ml CPK and 10 Mm cp for 90 min to circumvent problems arising from the contamination and degradation of triphosphate nucleotide solutions.
The pool of G418-resistant clones was tested for its functional IP3 response to several nucleotides, according to the method described above. The cells were challenged by various nucleotides at a concentration of 100 μM for 30 s: ATP, ADP, UTP, UDP, ITP, IDP, TDP.

Molecule | IC50 (human P2Y13 (GPR86)) | IP3 response [1]
CNc1ncnc2c1ncn2[C@H]1C[C@H](OP(=O)(O)O)[C@@H](COP(=O)(O)O)O1 [MRS-2179] | > 100000 nM | –
Cc1nc(N=Nc2ccc(S(=O)(=O)O)cc2S(=O)(=O)O)c(COP(=O)(O)O)c(C=O)c1O [PPADS] | 11700 ± 900 nM | –
Cc1ccc(C(=O)Nc2ccc(S(=O)(=O)O)c3cc(S(=O)(=O)O)cc(S(=O)(=O)O)c23)cc1NC(=O)c1cccc(NC(=O)Nc2cccc(C(=O)Nc3cc(C(=O)Nc4ccc(S(=O)(=O)O)c5cc(S(=O)(=O)O)cc(S(=O)(=O)O)c45)ccc3C)c2)c1 [Suramine] | 2300 ± 400 nM | –
NCCc1c[nH]cn1 [histamine] | – | strong IP3 response
Reactive Blue 2 | 1900 ± 100 nM | –
